We go through 4 molecules from US10239844B2, “Disubstituted triazole analogs” (BioVentures, LLC, priority 2014, dated 2019).

Molecules are shown by their SMILES.

In one data set the test system is Hs578T cells. Kind of data set: Hs578T cell viability, Calcein-AM fluorescence, 48 hours. The data set is classed as cell-based. The following applies: Homo sapiens, Hs-578T. How it is done:
Some of these compounds were also screened against breast cancer cell line Hs578T. Briefly, Hs578T cells were seeded at 3,000 cells per well into 96-well plates and incubated overnight at 37° C. in DMEM (Dulbecco's Modified Eagle's Medium) containing 10% FBS (Fetal Bovine Serum) medium. The following day, various concentrations of combretastin analogs, or vehicle, were added to each plate and the plates were then incubated for 48 hours. Then, cells were washed twice with Dulbecco's Phosphate-Buffered Saline (DPBS) pH 7.4 and incubated with 2 μM Calcein-AM for 30 minutes at 25° C. Fluorescence was measured using a 490 nm excitation filter and a 520 nm emission filter. The fluorescence intensity is proportional to the number of viable cells. The fluorescence intensity of control (untreated) cells was taken as 100% viability. The relative cell viability compared to control was calculated by using the following formula: Cell viability (%)=Fluorescence intensity of treated cells/Fluorescence intensity of untreated cells×100.
The GI50 values (growth inhibition; anti-proliferation) were calculated using GraphPad prism (San Diego, Calif.) by plotting the percent cell viability as a function of the compound concentration and fit to a four-parameter logistic model. The data represents mean±standard deviation of three independent experiments.

The test system of data set [1] is GFP expressing leukemia cells. Kind of data set: In vivo anti-leukemic activity, GFP expressing leukemia cells injected into mice. Particulars: 3.5 mg/kg. How it is done:
The anti-leukemic activity of Compound 8 (FIG. 1) was evaluated in vivo. GFP expressing leukemia cells were injected into mice. One week post injection, mice were treated with Compound 8 at 3.5 mg/kg or DMSO (control) (FIG. 11A). Mice were imaged one week later. […] Further, bone marrow was isolated and the percent of GFP expressing AML stem cells was quantitated.

In the case of `COc1cc(-c2n[nH]nc2-c2cc3ccccc3s2)cc(OC)c1OC` [PNR-7-74, 4-(benzo[b]thiophen-2-yl)-5-(3,4,5-trimethoxyphenyl)-2H-1,2,3-triazole], the melting point was in the range of 189 to 191 °C. In addition, the 50% growth inhibitory concentration (GI50) in the data set on Hs578T cells is 10.3 nM.

Turning to `COc1cc(OC)cc(-c2n[nH]nc2-c2cc3ccccc3s2)c1` [PNR-7-83, 4-(benzo[b]thiophen-2-yl)-5-(3,5-dimethoxyphenyl)-2H-1,2,3-triazole], in the data set with Hs578T cells, the GI50 was 66.5 nM.

Consider `COc1cc(-c2n[nH]nc2-c2cc3ccccc3o2)cc(OC)c1OC` [PNR-7-81, 4-(benzofuran-2-yl)-5-(3,4,5-trimethoxyphenyl)-2H-1,2,3-triazole], for which the melting point is 158 to 160 °C. For the same molecule, in the data set with Hs578T cells, the GI50 was 20.3 nM.

As to `COc1cc(-c2n[nH]nc2-c2ccc3c(c2)OCO3)cc(OC)c1OC` [Compound 8, 4-(benzo[d][1,3]dioxol-5-yl)-5-(3,4,5-trimethoxyphenyl)-2H-1,2,3-triazole], the “tumor shrinkage, imaging of GFP expressing cells (FIG. 11C)” value in data set [1] (imaged one week after treatment, relative to DMSO and untreated mice) is reported as “significant tumor shrinkage”. The “percent of GFP expressing AML stem cells in bone marrow (FIG. 10)” value in data set [1] (isolated bone marrow) is reported as “significant reduction in AML stem cells”. Besides, in data set [1] (versus DMSO control), the “average radiance (FIG. 11B)” value was “significant reduction in leukemia cells”.

By GI50 is commonly meant the concentration giving 50% growth inhibition. The melting point is the temperature of the solid-liquid transition.
